Test system: 186277-243-T-J2-PDC complex spheroids, viability
Experiment: Anticancer human tumor 186277-243-T-J2-PDC patient-derived colon adenocarcinoma cell line growth inhibition [RAS]
Conditions: for IC50: curve of first compound; for viability, T/C: stronger effect = lower value
Excerpt: RAS pathway inhibitors in Combinations in Complex Spheroids
A high-throughput screen of multi-cell type tumor spheroids was designed to identify active combinations of RAS pathway inhibitors and targeted small molecules. Complex spheroids include a stromal component modeled by human endothelial cells (HUVEC) and fibroblasts modeled by human mesenchymal stem cells (MSCs). The concentration ranges selected for each drug and investigational agent were based upon clinically achievable concentrations if the clinical Cmax of the agent was known.
Compounds. The drugs and investigational agents: abemaciclib (NSC768073), cobimetinib (NSC768068), divarasib (GDC6063, NSC841802), docetaxel (NSC628503), GDC-1971 (RLY-1971, NSC841576), gemcitabine (NSC613327), inavolisib (NSC800729), ipatasertib (NSC767898), KB-0742 (NSC834161), MRTX-1133 (NSC836407), osimertinib (NSC779217), RMC-4630 (NSC839698), RMC-6236 (NSC851965), RMC-6291 (NSC852671), Ro-3306 (NSC812927), sapanisertib (NSC764658), SN-38 (NSC673596), staurosporine (NSC755774), SY5609 (NSC837396), and tovorafenib (DAY101, NSC766906), were obtained from the National Cancer Institute (NCI) Developmental Therapeutics Program Chemical Repository. The FDA-approved anticancer drug set is available from the NCI Developmental Therapeutics Program. […] The stock solutions were prepared in dimethyl sulfoxide (DMSO, Sigma-Aldrich, St. Louis, MO, cat. D2650) at 800-fold the tested concentration and stored at -70 degrees C prior to their use. All drugs and investigational agents were tested over a range starting from a high concentration at or near the clinical Cmax and decreasing in half-log increments. If the clinical Cmax for an agent had not been determined, the highest concentration tested was 10 microM.
Cell Culture. All cells were maintained in an incubator at 37 degrees C and 5% CO2 with 95% humidity. The PDC lines were cultured according to standard operating procedures established by the NCI PDMR. All PDCs were thawed and cultured in Matrigel-coated flasks prepared with a working solution of 1X Ham's F-12 nutrient mix, without supplementation (Invitrogen, Waltham, MA, cat. 11765054), 100 U/mL penicillin-streptomycin (Invitrogen, cat. 15140122), and 2.5% Matrigel (Corning Inc., Corning, NY, cat. 354248) for the first three passages. The 362531-283-R-J2-PDC and 782815-120-R-J1-PDC lines were cultured in 6C/Colon 1B media, which includes advanced DMEM/F-12 (Thermo Fisher Scientific, cat. 12634028), 10 mM HEPES (Thermo Fisher Scientific, cat. 15630080), 1X GlutaMAX supplement (Thermo Fisher Scientific, cat. 35050061), 0.1 mg/mL primocin (InvivoGen, San Diego, CA, cat. ant-pm-2), 10% defined fetal bovine serum, heat inactivated (HyClone Laboratories Inc., Logan, UT, cat. SH30070.03HI), 50% L-WRN conditioned media (ATCC, cat. CRL-3276), 1.25 mM N-Acetyl-L-cysteine (Sigma-Aldrich, cat. A9165), 10 mM nicotinamide (Sigma-Aldrich, cat. N0636), 1X B-27 supplement (Thermo Fisher Scientific, cat. 17504044), 1X N-2 supplement (Thermo Fisher Scientific, cat. 17502048), 50 ng/mL human EGF (Thermo Fisher Scientific, cat. PHG0311), and 10 microM Y-27632 dihydrochloride (Tocris Bioscience, cat. 1254). The K12877-001-R-J1-PDC line was cultured in 6I media, which includes all 6C/Colon 1B media plus 10 ng/mL human FGF-10 (PeproTech, cat. 100-26), 1 ng/mL human FGF-2 (PeproTech, cat. 100-18B), 1 µM prostaglandin E2 (Tocris Bioscience, cat. 2296), […] hydrocortisone (Sigma-Aldrich, cat. H4001), and […] bovine insulin (Sigma-Aldrich, cat. I6634). The K86415-001-R-J1-PDC line was cultured in 6D media, which includes all 6C/Colon 1B media components minus the L-WRN conditioned media. The 485176-168-R4-J1-PDC was cultured in PANC media, which includes all 6C/Colon 1B media plus 100 ng/mL human FGF-10 (PeproTech, cat. 100-26), 500 nM SB-431542 (Selleckchem, cat. S1067), and 10 nM gastrin (Tocris Bioscience, cat. 3006). […]
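Further: spheroids exposed to compounds for 7 days before viability read.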

Compound: CC1(O)CCCC1n1c(=O)c(C(F)F)cc2cnc(NC3CCN(S(C)(=O)=O)CC3)nc21 (configuration not stated) + C#Cc1c(F)ccc2cc(O)cc(-c3ncc4c(N5CC6CCC(C5)N6)nc(OCC56CCCN5CC(F)C6)nc4c3F)c12
- IC50 (second compound 0.0316 µM): 570 nM
- IC50 (second compound 0.1 µM): 104 nM
- IC50 (second compound 0.316 µM): < 31.6 nM
- IC50 (second compound 1 µM): < 31.6 nM
- IC50 (second compound 3.16 µM): < 31.6 nM
- IC50 (second compound 10 µM): < 31.6 nM
- viability, T/C (second compound 0.0316 µM, first compound 0.0316 µM): 71.2%
- viability, T/C (second compound 0.0316 µM, first compound 0.1 µM): 69.4%
- viability, T/C (second compound 0.0316 µM, first compound 0.316 µM): 47.3%
- viability, T/C (second compound 0.0316 µM, first compound 1 µM): 43.7%
- viability, T/C (second compound 0.0316 µM, first compound 3.16 µM): 33.4%
- viability, T/C (second compound 0.0316 µM, first compound 10 µM): 1.2%
- viability, T/C (second compound 0.1 µM, first compound 0.0316 µM): 65.4%
- viability, T/C (second compound 0.1 µM, first compound 0.1 µM): 50.3%
- viability, T/C (second compound 0.1 µM, first compound 0.316 µM): 31.8%
- viability, T/C (second compound 0.1 µM, first compound 1 µM): 27.8%
- viability, T/C (second compound 0.1 µM, first compound 3.16 µM): 20.9%
- viability, T/C (second compound 0.1 µM, first compound 10 µM): 0.42%
- viability, T/C (second compound 0.316 µM, first compound 0.0316 µM): 23.6%
- viability, T/C (second compound 0.316 µM, first compound 0.1 µM): 23.3%
- viability, T/C (second compound 0.316 µM, first compound 0.316 µM): 17%
- viability, T/C (second compound 0.316 µM, first compound 1 µM): 16.9%
- viability, T/C (second compound 0.316 µM, first compound 3.16 µM): 11.4%
- viability, T/C (second compound 0.316 µM, first compound 10 µM): 0.33%
- viability, T/C (second compound 1 µM, first compound 0.0316 µM): 15.6%
- viability, T/C (second compound 1 µM, first compound 0.1 µM): 13.1%
- viability, T/C (second compound 1 µM, first compound 0.316 µM): 10%
- viability, T/C (second compound 1 µM, first compound 1 µM): 12.4%
- viability, T/C (second compound 1 µM, first compound 3.16 µM): 10.8%
- viability, T/C (second compound 1 µM, first compound 10 µM): 0.24%
- viability, T/C (second compound 3.16 µM, first compound 0.0316 µM): 11.4%
- viability, T/C (second compound 3.16 µM, first compound 0.1 µM): 12.1%
- viability, T/C (second compound 3.16 µM, first compound 0.316 µM): 9.69%
- viability, T/C (second compound 3.16 µM, first compound 1 µM): 8.93%
- viability, T/C (second compound 3.16 µM, first compound 3.16 µM): 9.39%
- viability, T/C (second compound 3.16 µM, first compound 10 µM): 0.27%
- viability, T/C (second compound 10 µM, first compound 0.0316 µM): 9.74%
- viability, T/C (second compound 10 µM, first compound 0.1 µM): 8.08%
- viability, T/C (second compound 10 µM, first compound 0.316 µM): 9.05%
- viability, T/C (second compound 10 µM, first compound 1 µM): 8.95%
- viability, T/C (second compound 10 µM, first compound 3.16 µM): 8.58%
- viability, T/C (second compound 10 µM, first compound 10 µM): 0.36%

— PubChem BioAssay AID2060908 (Molecular Pharmacology Branch, DTP, NCI, 2025)
